Molecules are shown by their SMILES.

The values below come from patent US10166216B2 (Rigel Pharmaceuticals, Inc., priority 2006, dated 2019).

Sequence of Axl (P30530 26-894): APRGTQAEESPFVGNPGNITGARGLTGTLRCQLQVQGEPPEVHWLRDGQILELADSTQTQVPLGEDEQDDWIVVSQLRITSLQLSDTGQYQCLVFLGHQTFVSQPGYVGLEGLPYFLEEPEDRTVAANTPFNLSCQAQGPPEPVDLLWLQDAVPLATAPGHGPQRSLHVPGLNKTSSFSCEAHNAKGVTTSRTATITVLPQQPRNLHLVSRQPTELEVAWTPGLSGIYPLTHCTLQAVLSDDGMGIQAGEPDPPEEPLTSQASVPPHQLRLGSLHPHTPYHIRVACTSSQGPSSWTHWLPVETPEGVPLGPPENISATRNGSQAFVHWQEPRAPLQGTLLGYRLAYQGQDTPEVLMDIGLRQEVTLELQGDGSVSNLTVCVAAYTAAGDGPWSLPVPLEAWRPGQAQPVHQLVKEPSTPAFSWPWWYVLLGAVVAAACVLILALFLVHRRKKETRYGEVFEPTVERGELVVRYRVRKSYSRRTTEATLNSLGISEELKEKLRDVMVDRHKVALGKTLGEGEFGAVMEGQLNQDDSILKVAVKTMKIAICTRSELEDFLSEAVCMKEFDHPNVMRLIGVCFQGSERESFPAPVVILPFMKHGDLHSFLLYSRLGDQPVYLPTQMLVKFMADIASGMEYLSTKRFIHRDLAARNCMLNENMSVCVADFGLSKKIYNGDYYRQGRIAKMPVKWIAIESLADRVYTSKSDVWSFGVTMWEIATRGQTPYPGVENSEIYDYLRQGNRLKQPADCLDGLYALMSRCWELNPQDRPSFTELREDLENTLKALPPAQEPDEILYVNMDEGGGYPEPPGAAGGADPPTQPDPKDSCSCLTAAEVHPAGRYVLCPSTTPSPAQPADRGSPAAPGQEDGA

The target of one assay is Axl (Homo sapiens (Human), UniProt P30530). The assay is described as follows: Phospho-Akt in-cell Western assay (Axl-antibody cross-linking stimulation). The class given is cell-based. To be noted: inhibition of Axl activity, Hela cells, phospho-Akt readout; Table 1, formula (Ia1). On the procedure: The working solution: dilute the stock 1:20 with PBS immediately before use. • 10% SDS: working solution: 5% SDS (sodium dodecylsulfate), diluted in PBS Methods: Day 1:
A 96 well TC (tissue culture treated) plate was coated with 10 μg/mL poly-L-Lysine at 37° C. for 30 min, washed twice with PBS, and air-dried for 5 minutes before cells were added. Hela cells were seeded at 10,000 cells/well and the cells were starved in 100 μL starvation medium containing Axl/Fc for 24 hrs.
The cells were pre-treated with test compounds by adding 100 μL of 2× test compound to the starvation medium on the cells. The cells were incubated at 37° C. for 1 hr before stimulation.
The resulting mix was warmed to 37° C. 50 μL of 5× Axl 1st/2nd of antibody cluster was added to the cells and the cells were incubated at 37° C. for 5 min.
After 5 minutes stimulation, the plate was flicked to remove medium and the plate was tapped onto paper towels. Formaldehyde (4.0% in PBS, 100 μL) was added to fix the cells and the cells were incubated at ambient temperature for 20 min without shaking.
The cells were washed with a plate washer buffer to remove the formaldehyde solution. The plate was flicked to removed excess wash buffer and tapped onto paper towels. Quenching buffer (100 μL) was added to each well and the cells were incubated at ambient temperature for 20 minutes without shaking.
The cells were washed with a plate washer buffer to remove the quenching buffer. Blocking buffer (100 μL) was added and the cells were incubated at ambient temperature for at least an hour with gentle shaking.
The cells were washed with a plate washer buffer and diluted primary antibody (50 μL) was added to each well (blocking buffer was added to the negative control wells instead). The plates were incubated overnight at 4° C. with gentle shaking.
The wash buffer was removed, diluted secondary antibody (100 μL) was added, and the cells were incubated at ambient temperature for 1 hour with gentle shaking. During the incubation, the chemiluminescent reagent was brought to ambient temperature.
The secondary antibody was removed by washing the cells 1× with wash buffer, 1× with PBS by plate washer. The PBS was removed from the plate and the chemiluminescent reagent (80 μL: 40 μL A and 40 μL B) was added to each well at ambient temperature.
The resulting chemiluminescence was read with a Luminomitor within 10 minutes to minimize changes in signal intensity. […] The plate was tapped onto paper towels to remove excess liquid from wells and air-dried at ambient temperature for 5 minutes.
Crystal Violet working solution (60 μL) was added to each well and the cells were incubated at ambient temperature for 30 min. The crystal violet solution was removed, and the wells were rinsed with PBS, then washed 3× with PBS (200 μL) for 5 minutes each.
5% SDS solution (70 μL) was added to each well and the cells were incubated on a shaker for 30 min at ambient temperature.
This relative cell number was then used to normalize each luminescence reading. […]
A word on the IC50: it is the concentration at which inhibition is half-maximal. For the molecule `Nc1nc(Nc2ccc(OCCN3CCCC3)cc2)nn1-c1nccc2ccccc12` [Compound 50, 1-(isoquinolin-1-yl)-N^3-(4-(2-(pyrrolidin-1-yl)ethoxy)phenyl)-1H-1,2,4-triazole-3,5-diamine], the IC50 was less than 1000 nM.
On the same count and under the same terms, next, `Nc1nc(Nc2ccc(OCCN3CCCC3)cc2)nn1-c1ncnc2sccc12` [Compound 51, N^3-(4-(2-(pyrrolidin-1-yl)ethoxy)phenyl)-1-(thieno[2,3-d]pyrimidin-4-yl)-1H-1,2,4-triazole-3,5-diamine]: less than 1000 nM; `Nc1nc(Nc2ccc(OCCN3CCCC3)cc2)nn1-c1ncnc2cc(-c3ccccc3)sc12` [Compound 52, 1-(6-phenylthieno[3,2-d]pyrimidin-4-yl)-N^3-(4-(2-(pyrrolidin-1-yl)ethoxy)phenyl)-1H-1,2,4-triaozle-3,5-diamine]: less than 1000 nM.
Same read-out and setting: next, `Nc1nc(Nc2ccc(OCCN3CCCC3)cc2)nn1-c1nc(C(F)(F)F)nc2ccccc12` [Compound 53, N^3-(4-(2-(pyrrolidin-1-yl)ethoxy)phenyl)-1-(2-(trifluoromethyl)quinazolin-4-yl)-1H-1,2,4-triazole-3,5-diamine]: less than 1000 nM.
Regarding `Nc1nc(Nc2ccc(OCCN3CCCC3)cc2)nn1-c1ncnc2ccsc12` [Compound 54, N^3-(4-(2-(pyrrolidin-1-yl)ethoxy)phenyl)-1-(thieno[3,2-d]pyrimidin-4-yl)-1H-1,2,4-triazole-3,5-diamine], the IC50 is less than 1000 nM.
In turn, `Nc1nc(Nc2ccc(OCCN3CCCC3)c(F)c2)nn1-c1cnc2ccccc2n1` [Compound 55, N^3-(3-fluoro-4-(2-(pyrrolidin-1-yl)ethoxy)phenyl)-1-(quinoxalin-2-yl)-1H-1,2,4-triazole-3,5-diamine] showed a half-maximal inhibitory concentration (IC50) of less than 1000 nM.
`Nc1nc(Nc2ccc(OCCN3CCCC3)c(F)c2)nn1-c1nc2ccccc2s1` [Compound 56, 1-(benzo[d]thiazol-2-yl)-N^3-(3-fluoro-4-(2-(pyrrolidin-1-yl)ethoxy)phenyl)-1H-1,2,4-triazole-3,5-diamine] yielded a concentration for half-maximal inhibition (IC50) of less than 1000 nM.
On the same count and under the same terms, next, `Nc1nc(Nc2ccc(OCCN3CCCC3)c(F)c2)nn1-c1ccccn1` [Compound 57, N^3-(3-fluoro-4-(2-(pyrrolidin-1-yl)ethoxy)phenyl)-1-(pyridin-2-yl)-1H-1,2,4-triazole-3,5-diamine]: less than 1000 nM.
Consider `Nc1nc(Nc2ccc(OCCN3CCCC3)c(F)c2)nn1-c1nccc2ccccc12` [Compound 58, N^3-(3-fluroo-4-(2-(pyrrolidin-1-yl)ethoxy)phenyl)-1-(isoquinolin-1-yl)-1H-1,2,4-triaozle-3,5-diamine], for which the IC50 is less than 1000 nM.
`Nc1nc(Nc2ccc(OCCN3CCCC3)cc2)nn1-c1ncnc2sc3c(c12)CCCC3` [Compound 61, 1-(5,6,7,8-tetrahydrobenzo[4.,5]thieno[2,3-d]pyrimidin-4-yl)-N^3-(4-(2-(pyrrolidin-1-yl)ethoxy)phenyl)-1H-1,2,4-triazole-3,5-diamine]: the IC50 is less than 1000 nM.
The molecule `Nc1nc(Nc2ccc(OCCN3CCCC3)c(Cl)c2)nn1-c1nccc2ccccc12` [Compound 62, N^3-(3-chloro-4-(2-(pyrrolidin-1-yl)ethoxy)phenyl)-1-(isoquinolin-1-yl)-1H-1,2,4-triazole-3,5-diamine] gave an IC50 of less than 1000 nM.
In the case of `Nc1nc(Nc2ccc(OCCN3CCCC3)cc2)nn1-c1nccc2ccsc12` [Compound 64, N^3-(4-(2-(pyrrolidin-1-yl)ethoxy)phenyl)-1-(thieno[2,3-c]pyridin-7-yl)-1H-1,2,4-triazole-3,5-diamine], the IC50 was less than 1000 nM.
On the same count and under the same terms, next, `Nc1nc(Nc2ccc(OCCN3CCCC3)cc2)nn1-c1ncnc2sc3c(c12)CCC3` [Compound 66, 1-(6,7-dihydro-5H-cyclopenta[4,5]thieno[2,3-d]pyrimidin-4-yl)-N^3-(4-(2-(pyrrolidin-1-yl)ethoxy)phenyl)-1H-1,2,4-triazole-3,5-diamine]: less than 1000 nM; `Nc1nc(Nc2ccc(OCCN3CCCC3)c(Cl)c2)nn1-c1ncnc2sc3c(c12)CCCC3` [Compound 67, N^3-(3-chloro-4-(2-(pyrrolidin-1-yl)ethoxy)phenyl)-1-(5,6,7,8-tetrahydrobenzo[4,5]thieno[2,3-d]pyrimidin-4-yl)-1H-1,2,4-triazole-3,5-diamine]: less than 1000 nM.
The molecule `Nc1nc(Nc2ccc(OCCN3CCCC3)c(F)c2)nn1-c1ncnc2sc3c(c12)CCCC3` [Compound 68, N^3-(3-fluoro-4-(2-(pyrrolidin-1-yl)ethoxy)phenyl)-1-(5,6,7,8-tetrahydrobenzo[4,5]thieno[2,3-d]pyrimidin-4-yl)-1H-1,2,4-triazole-3,5-diamine] yielded an IC50 of less than 1000 nM.
On the same count and under the same terms, next, `Nc1nc(Nc2ccc(OCCN3CCCC3)cc2)nn1-c1nccc2occc12` [Compound 69, 1-(furo[3,2-c]pyridin-4-yl)-N^3-(4-(2-(pyrrolidin-1-yl)ethoxy)phenyl)-1H-1,2,4-triazole-3,5-diamine]: less than 1000 nM; `Nc1nc(Nc2ccc(OCCN3CCCC3)cc2)nn1-c1cc2c(nn1)-c1ccccc1CC2` [Compound 75, 1-(5,6-dihydrobenzo[h]cinnolin-3-yl)-N^3-(4-(2-(pyrrolidin-1-yl)ethoxy)phenyl)-1H-1,2,4-triazole-3,5-diamine]: less than 1000 nM; `Nc1nc(Nc2ccc(OCCN3CCCC3)cc2)nn1-c1nc(O)c2c(n1)CCCC2` [Compound 76, 2-(5-amino-3-(4-(2-(pyrrolidin-1-yl)ethoxy)phenylamino)-1H-1,2,4-triazol-1-yl)-5,6,7,8-tetrahydroquinazolin-4-ol]: more than 20000 nM.
On the same count and under the same terms, next, `COc1cc2ccnc(-n3nc(Nc4ccc(OCCN5CCCC5)cc4)nc3N)c2cc1OC` [Compound 77, 1-(6,7-dimethoxyisoquinolin-1-yl)-N^3-(4-(2-(pyrrolidin-1-yl)ethoxy)phenyl)-1H-1,2,4-triazole-3,5-diamine]: less than 1000 nM; `Nc1nc(Nc2ccc(OCCN3CCCC3)cc2)nn1-c1nccc2[nH]c(=O)ccc12` [Compound 78, 5-(5-amino-3-(4-(2-(pyrrolidin-1-yl)ethoxy)phenylamino)-1H-1,2,4-triazol-1-yl)-1,6-naphthyridin-2(1H)-one]: less than 1000 nM.

Still in this assay, the particulars now being: inhibition of Axl activity, Hela cells, phospho-Akt readout; Table 4, formula (Ib2).
Molecule `COc1cc2ncnc(-n3nc(N)nc3Nc3ccc(N4CCN(C5CCCCC5)CC4)cc3)c2cc1OC` [Compound 83, N^5-(4-(4-cyclohexylpiperazin-1-yl)phenyl)-1-(6,7-dimethoxyquinazolin-4-yl)-1H-1,2,4-triazole-3,5-diamine] had an IC50 of less than 1000 nM.
Molecule `CN1CCN(c2ccc(Nc3nc(N)nn3-c3ncnc4ccc(Cl)cc34)cc2)CC1` [Compound 86, 1-(6-chloroquinazolin-4-yl)-N^5-(4-(4-methylpiperazin-1-yl)phenyl)-1H-1,2,4-triazole-3,5-diamine] came in with an IC50 of less than 1000 nM.

The assay is the same for the next values; noted with them: inhibition of Axl activity, phospho-Akt in-cell Western assay.
Molecule `Nc1nc(Nc2ccc(N3CCN(C4CCCCC4)CC3)cc2)nn1-c1nccc2ccccc12` [Compound 81, N^3-(4-(4-cyclohexylpiperazin-1-yl)phenyl)-1-(isoquinolin-1-yl)-1H-1,2,4-triazole-3,5-diamine] displayed an IC50 of less than 1000 nM.
On the same count and under the same terms, next, `COc1cc2c(-n3nc(Nc4ccc(N5CCN(C6CCCCC6)CC5)cc4)nc3N)ncnc2cc1O` [Compound 82, 4-(5-amino-3-(4-(4-cyclohexylpiperazin-1-yl)phenylamino)-1H-1,2,4-triazol-1-yl)-6-methoxyquinazolin-7-ol]: less than 1000 nM.
`CN1CCN(c2ccc(Nc3nc(N)n(-c4nccc5ccccc45)n3)cc2)CC1` [Compound 84, 1-(isoquinolin-1-yl)-N^3-(4-(4-methylpiperazin-1-yl)phenyl)-1H-1,2,4-triazole-3,5-diamine]: the IC50 is less than 1000 nM.
The molecule `CN1CCN(c2ccc(Nc3nc(N)n(-c4ncnc5ccc(Cl)cc45)n3)cc2)CC1` [Compound 85, 1-(6-chloroquinazolin-4-yl)-N^3-(4-(4-methylpiperazin-1-yl)phenyl)-1H-1,2,4-triazole-3,5-diamine] yielded an IC50 of less than 1000 nM.
In the case of `Nc1nc(Nc2ccc(N3CCN(C4CCCCC4)CC3)c(F)c2)nn1-c1nccc2ccccc12` [Compound 87, N^3-(4-(4-cyclohexylpiperazin-1-yl)-3-fluroophenyl)-1-(isoquinolin-1-yl)-1H-1,2,4-triazole-3,5-diamine], the IC50 is less than 1000 nM.
